A word on the inhibition: it is the relative decrease from the control value, in per cent.

In one assay the target is T1, phosphorylated FLT3 (Homo sapiens, UniProt P36888, INS600HVDFREYEYD).
T1 construct: MV4–11 cells, which endogenously express FLT3-ITD; from tissue; host or cells: MV4-11 xenograft tumours from nude mice
T1 sequence (P36888 with tags, fused parts or gaps INS600HVDFREYEYD): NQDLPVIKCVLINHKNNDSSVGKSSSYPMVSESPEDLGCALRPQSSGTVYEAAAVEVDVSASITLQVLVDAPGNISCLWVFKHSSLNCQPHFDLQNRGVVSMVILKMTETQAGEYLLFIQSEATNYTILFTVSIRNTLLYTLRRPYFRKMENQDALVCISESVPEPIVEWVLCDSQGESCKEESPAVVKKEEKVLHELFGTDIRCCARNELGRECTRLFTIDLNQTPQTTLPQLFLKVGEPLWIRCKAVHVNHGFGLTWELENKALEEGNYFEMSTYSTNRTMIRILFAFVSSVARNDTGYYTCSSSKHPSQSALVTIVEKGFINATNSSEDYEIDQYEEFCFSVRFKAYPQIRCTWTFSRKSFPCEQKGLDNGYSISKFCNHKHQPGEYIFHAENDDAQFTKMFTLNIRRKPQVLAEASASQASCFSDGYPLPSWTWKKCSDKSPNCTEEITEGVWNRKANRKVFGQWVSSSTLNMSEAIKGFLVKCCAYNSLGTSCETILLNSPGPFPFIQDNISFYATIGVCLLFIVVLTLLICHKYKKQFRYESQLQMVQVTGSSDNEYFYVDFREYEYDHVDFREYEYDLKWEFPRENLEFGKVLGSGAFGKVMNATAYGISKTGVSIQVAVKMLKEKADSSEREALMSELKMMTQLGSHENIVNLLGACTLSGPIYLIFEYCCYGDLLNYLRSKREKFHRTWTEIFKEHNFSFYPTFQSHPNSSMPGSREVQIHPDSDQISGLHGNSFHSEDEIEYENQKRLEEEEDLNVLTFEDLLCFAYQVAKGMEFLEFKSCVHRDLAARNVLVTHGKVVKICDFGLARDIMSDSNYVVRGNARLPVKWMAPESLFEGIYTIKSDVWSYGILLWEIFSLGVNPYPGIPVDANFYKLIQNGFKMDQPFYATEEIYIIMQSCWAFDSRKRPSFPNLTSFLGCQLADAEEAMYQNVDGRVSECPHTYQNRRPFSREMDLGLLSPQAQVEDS
The experiment in a line: ELISA for phosphorylated FLT3 / total FLT3 in MV4-11 xenograft tumors. In kind it is in vivo, mice. As for the experimental part:
Detailed protocols can be found in the online resource.
After 1 month, mice were divided into groups, with each group having approximately the same mean tumor volume.
MULTI-ARRAY® 96-well plates (Meso Scale Discovery, Rockville, MD) were coated with capture antibodies for phosphorylated FLT3 or total FLT3 (DuoSet® IC, R&D systems, Minneapolis, MN) and incubated overnight at 4°C with shaking. After washing with TBS-T, coated plates were blocked with 3% MSD® Blocker-A (Meso Scale Discovery) in TBS-T for 1 h at room temperature and then incubated with total protein lysates derived from MV4-11 xenografted tumors (500 μg/well for phosphorylated FLT3 and 20 μg/well for FLT3), overnight at 4°C. Following a wash step, anti-phosphotyrosine antibody (clone 4G10®, Biotin Conjugate [Millipore, Billerica, MA]) for the detection of phosphorylated FLT3 or the DuoSet® IC FLT3 detection antibody for total FLT3 were added to the plate and incubated for 2 h at room temperature. Wells were then washed and incubated with MSD® SULFO-TAG Labeled Streptavidin (Meso Scale Discovery) for 1 h at room temperature, followed by the addition of MSD® Read Buffer (Meso Scale Discovery). Electrochemiluminescent signals were measured using a SECTOR® imager (Meso Scale Discovery). Phosphorylation levels were normalized to total FLT3 levels in each group (3 mice/group except the point at 1 h after the administration of 1 mg/kg [2 mice]) relative to the mean value of the control group (5 mice/group). Data are reported as mean ± SEM.
In general terms: An ELISA detects its analyte on a solid surface through an enzyme-linked reagent.

Another assay addresses T2, AXL (Homo sapiens, UniProt P30530).
T2 construct: purchased Carna Biosciences, Inc
The experiment in a line: Kinase inhibitory assay (TK-ELISA / off-chip MSA). Format: biochemical. The note with it: 1 nM; single experiment.

T2 sequence (P30530 26-894): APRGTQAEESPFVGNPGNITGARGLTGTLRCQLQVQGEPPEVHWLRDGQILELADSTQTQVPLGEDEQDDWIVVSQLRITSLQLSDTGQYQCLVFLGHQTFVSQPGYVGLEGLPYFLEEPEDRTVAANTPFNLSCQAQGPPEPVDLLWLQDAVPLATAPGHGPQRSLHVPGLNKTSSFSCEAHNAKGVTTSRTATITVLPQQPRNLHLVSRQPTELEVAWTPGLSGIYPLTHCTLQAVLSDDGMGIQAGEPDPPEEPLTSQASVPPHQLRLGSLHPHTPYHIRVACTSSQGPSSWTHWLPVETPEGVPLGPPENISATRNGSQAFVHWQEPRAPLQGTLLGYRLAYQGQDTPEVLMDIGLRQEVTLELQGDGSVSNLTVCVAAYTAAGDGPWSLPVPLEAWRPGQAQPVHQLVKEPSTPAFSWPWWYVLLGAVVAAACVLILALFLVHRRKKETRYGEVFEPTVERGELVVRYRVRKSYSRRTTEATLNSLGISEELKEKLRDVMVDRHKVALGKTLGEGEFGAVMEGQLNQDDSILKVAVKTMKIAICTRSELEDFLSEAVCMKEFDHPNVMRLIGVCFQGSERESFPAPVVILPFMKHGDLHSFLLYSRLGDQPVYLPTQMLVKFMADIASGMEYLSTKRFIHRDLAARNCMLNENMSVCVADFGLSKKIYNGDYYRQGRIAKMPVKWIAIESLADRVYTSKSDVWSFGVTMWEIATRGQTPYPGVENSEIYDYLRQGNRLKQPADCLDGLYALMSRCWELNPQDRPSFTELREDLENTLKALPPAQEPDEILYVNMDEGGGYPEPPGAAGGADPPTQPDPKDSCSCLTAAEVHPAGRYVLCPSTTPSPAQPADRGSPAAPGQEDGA
Description for AXL: These assays were conducted according to the manufacturer’s instructions. […] TK-ELISA and MSA assays were used to conduct IC50 studies for FLT3, LTK, AXL, and c-KIT; the HTRF® KinEASE™-TK assay (Sceti Medical Labo, Tokyo, Japan) was performed according to the manufacturer’s protocol to assess the IC50 value of echinoderm microtubule-associated protein-like 4-ALK (EML4-ALK; three individual experiments for each kinase).

As to `CCc1nc(C(N)=O)c(Nc2ccc(N3CCC(N4CCN(C)CC4)CC3)c(OC)c2)nc1NC1CCOCC1` [gilteritinib], at phosphorylated FLT3 (single oral 1 mg/kg, by 24 h), the “Phospho-FLT3 state in tumor” value is given as “returned to the pre-treatment level”. Besides, at phosphorylated FLT3 (single oral 10 mg/kg, 24 h period), the “Decrease in phospho-FLT3 in tumor” value is listed as “maintained throughout the 24 h experimental period”. Besides, the “Decrease of phosphorylated FLT3 in tumor compared with control” value at phosphorylated FLT3 (within 1 h after single oral 1–10 mg/kg) is “approximately 40%”. Also, on AXL, the inhibition at 0.001 µM is more than 50%.

The record behind these values is PMC5613053 (Investigational New Drugs, 2017).
